Results from patent publication US6013625A, “Method and composition for treating thrombosis” (La Jolla Cancer Research Foundation, priority 1994, dated 2000).
Several values for one entry are separate records, joined by “and”; a condition that tells them apart may be missing. Identical values can stand only once.

What was measured:
platelets [1] = assay: Ex vivo platelet aggregation after peptide injection in the canine coronary thrombosis model; design: species or system dog; details: for reduction of ex vivo aggregation relative to control levels: 3 mg/kg
Description: For all ex vivo studies (see FIG. 3), control aggregation values were standardized to the percentages of light transmission observed in PRP and PPP samples (0% and 100%, respectively).
Animals were randomly assigned to two treatment groups: vehicle control (i.e., normal saline) or RGD peptides at various concentrations. Peptides were administered intra-atrially in both bolus and continuous injections. […] A continuous infusion of the same peptide was then started immediately after completion of this initial injection. Animals that received a 5 mg/kg bolus also received a 5 mg/kg/hr infusion, whereas animals that received a 10 mg/kg bolus also received a 10 mg/kg/hr infusion. The anti-thrombotic effects of the peptides were monitored until 30 minutes after the occurrence of a persistent, occlusive thrombus or five hours after the initiation of electrical stimulation (whichever resulted first). If an occlusive thrombus had not developed within four hours after the initiation of current, the peptide infusion was stopped.
Platelet counts and ex vivo aggregation studies were performed one hour before and 1, 3, and 5 hours after application of anodal direct current.
Platelet aggregation was also determined ex vivo at one, three, and five hours after current application. For these studies, arachidonic acid, or collagen was again used to stimulate the platelets.

coronary thrombosis = assay: Electrically induced canine coronary thrombosis, time to full occlusion; format: in vivo, dog
Description: Male mongrel dogs weighing 14 to 20 kg were selected based on proper aggregation of their platelets in response to arachidonic acid, collagen, and adenosine disphosphate (ADP) and based on similar weights and hemodynamic properties.
Before surgery, the animals were anesthetized with sodium pentobarbital (30 mg/kg, i.v.) and then intubated and ventilated on room air with positive pressure using a respirator (Harvard Apparatus, S. Natick, Mass.) at a volume of 30 ml/kg and a frequency of 12 breaths/min. Surgery, performed under aseptic conditions, was begun with the placement of cannulae into the left carotid artery and jugular vein for monitoring arterial blood pressure (Statham P23 pressure transducer, Gould, Inc., Cardiovascular Products, Oxnard, Calif.) and administering intravenous fluids.
The heart was exposed via a left thoracotomy through the 5th intercostal space. A 2-cm segment of the left circumflex coronary artery (LCCA) was isolated from surrounding tissue by blunt dissection. […] The intra-coronary electrode was constructed by attaching a 25-gauge hypodermic needle tip to a 30-gauge Teflon-insulated silver-coated copper wire. The mechanical occluder was constructed of stainless steel in a C shape with a Teflon screw (2 mm diameter) on top. It was adjusted to control vessel circumference and decrease the reactive hyperemic flow due to a 10-sec (full) occlusion by 50-70% without affecting basal coronary blood flow (FIG. 1). A monopolar epicardial electrode was sutured to the surface of the ventricle in the region of LCCA distribution to monitor ischemic changes in the electrocardiogram (ECG). The left atrium was cannulated with polythylene tubing for administration of the peptide. Continuous recordings of blood pressure, limb lead II ECG, epicardial electrogram, and mean and phasic LCCA blood flow were obtained on a Model 7 polygraph (Grass Instrument Co., Quincy, Mass.).
One hour after the completion of surgery, a 100 micro-amp continuous anodal direct current delivered from a 9 volt nickel-cadmium battery was applied to the intimal surface of the LCCA. The anode of the battery was in series with a 250,000 ohm potentiometer and the intraluminal coronary artery electrode. The electric circuit was completed by placing the cathode in a subcutaneous site. Electrical stimulation was applied for three hours. At the conclusion of each experiment, the heart was fibrillated electrically and quickly removed, and the LCCA was dissected free as far as possible to verify the position of the implanted anodal electrode.
Animals were randomly assigned to two treatment groups: vehicle control (i.e., normal saline) or RGD peptides at various concentrations. Peptides were administered intra-atrially in both bolus and continuous injections. Each bolus injection consisted of 5 or 10 mg/kg and was administered 15 minutes before application of the current. A continuous infusion of the same peptide was then started immediately after completion of this initial injection. Animals that received a 5 mg/kg bolus also received a 5 mg/kg/hr infusion, whereas animals that received a 10 mg/kg bolus also received a 10 mg/kg/hr infusion. The anti-thrombotic effects of the peptides were monitored until 30 minutes after the occurrence of a persistent, occlusive thrombus or five hours after the initiation of electrical stimulation (whichever resulted first). If an occlusive thrombus had not developed within four hours after the initiation of current, the peptide infusion was stopped.
Coronary thrombosis was quantified as the time to full occlusion. The effects of the various peptide treatments on coronary thrombosis is illustrated in FIG. 4.

platelets [2] = assay: Ex vivo ADP-stimulated platelet aggregation in baboon PRP; details: animal 2; ADP 10 μm; 0, 1 and 2 hours
Description: At one- and two-hour time points, template bleeding times were measured, and blood samples were drawn to assess the hematology aggregation studies. Platelet aggregation studies were performed as described in Example V using ADP as the stimulus.
In addition, platelet aggregation studies were conducted on PRP derived from the second animal. Whole blood was drawn at three time points (0, 1 and 2 hours) of both control and experimental shunts.

[3] = biological target: T1, fibronectin receptor (Fn-R) (Homo sapiens, UniProt P05556+P08648); assay: Competitive ELISA for fibronectin receptor binding; details: purified receptor from human placenta, read-out: FnR Binding (IC50)
T1 construct: purified from (100 mM) octyl glucoside-extracted human placenta; from tissue; host or cells: human placenta
T1 sequence (P08648 42-894 limits assumed): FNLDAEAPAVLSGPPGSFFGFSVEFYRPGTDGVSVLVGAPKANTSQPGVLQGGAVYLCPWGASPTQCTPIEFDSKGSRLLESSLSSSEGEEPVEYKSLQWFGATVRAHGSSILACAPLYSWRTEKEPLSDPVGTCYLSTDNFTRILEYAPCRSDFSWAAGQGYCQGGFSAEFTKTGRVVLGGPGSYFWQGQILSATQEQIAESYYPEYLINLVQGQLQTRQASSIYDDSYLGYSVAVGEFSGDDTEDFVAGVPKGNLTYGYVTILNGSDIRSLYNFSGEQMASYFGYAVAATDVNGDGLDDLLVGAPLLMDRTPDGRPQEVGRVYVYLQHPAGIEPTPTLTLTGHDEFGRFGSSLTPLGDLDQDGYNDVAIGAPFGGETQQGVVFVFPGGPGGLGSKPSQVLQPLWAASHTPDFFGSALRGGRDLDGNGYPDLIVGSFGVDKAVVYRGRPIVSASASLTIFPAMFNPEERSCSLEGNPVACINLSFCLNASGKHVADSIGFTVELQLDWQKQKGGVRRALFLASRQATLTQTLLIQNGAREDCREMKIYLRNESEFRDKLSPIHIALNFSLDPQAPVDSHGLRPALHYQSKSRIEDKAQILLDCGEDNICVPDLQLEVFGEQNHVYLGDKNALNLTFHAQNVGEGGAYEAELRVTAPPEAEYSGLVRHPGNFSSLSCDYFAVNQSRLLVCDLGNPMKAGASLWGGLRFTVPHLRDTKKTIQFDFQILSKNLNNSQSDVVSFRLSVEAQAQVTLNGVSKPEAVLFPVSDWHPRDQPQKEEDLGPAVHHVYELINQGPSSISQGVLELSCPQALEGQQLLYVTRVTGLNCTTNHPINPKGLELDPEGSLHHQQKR
T1 sequence (P08648 895-1049 partner limits assumed): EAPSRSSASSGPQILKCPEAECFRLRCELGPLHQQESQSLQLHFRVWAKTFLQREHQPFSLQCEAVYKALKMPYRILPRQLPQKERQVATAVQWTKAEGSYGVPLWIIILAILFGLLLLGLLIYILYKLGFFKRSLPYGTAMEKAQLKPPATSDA
T1 sequence (P05556 21-798): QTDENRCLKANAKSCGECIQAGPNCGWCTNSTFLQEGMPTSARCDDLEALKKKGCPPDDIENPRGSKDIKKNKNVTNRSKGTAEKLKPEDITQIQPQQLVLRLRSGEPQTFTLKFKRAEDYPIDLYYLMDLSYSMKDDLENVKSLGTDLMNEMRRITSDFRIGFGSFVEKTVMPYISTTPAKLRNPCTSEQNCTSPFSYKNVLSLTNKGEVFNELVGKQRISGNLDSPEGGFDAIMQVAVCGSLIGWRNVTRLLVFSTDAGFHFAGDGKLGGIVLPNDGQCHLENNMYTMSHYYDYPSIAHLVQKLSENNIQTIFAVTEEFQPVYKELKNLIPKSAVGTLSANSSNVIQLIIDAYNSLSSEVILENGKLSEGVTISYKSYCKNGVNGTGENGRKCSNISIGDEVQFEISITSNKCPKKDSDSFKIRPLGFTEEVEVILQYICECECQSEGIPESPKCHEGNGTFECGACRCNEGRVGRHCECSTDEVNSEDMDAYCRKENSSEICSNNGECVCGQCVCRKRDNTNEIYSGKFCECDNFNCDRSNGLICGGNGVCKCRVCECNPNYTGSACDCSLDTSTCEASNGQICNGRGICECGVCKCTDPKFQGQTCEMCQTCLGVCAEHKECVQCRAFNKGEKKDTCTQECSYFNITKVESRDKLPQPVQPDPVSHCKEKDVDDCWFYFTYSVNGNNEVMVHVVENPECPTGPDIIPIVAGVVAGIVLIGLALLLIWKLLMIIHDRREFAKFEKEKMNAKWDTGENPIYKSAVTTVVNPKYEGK
Description: Peptide binding to purified Fn-R was determined by using a competitive enzyme-linked immunosorbent assay (ELISA) in which fibronectin is immobilized and the binding of solubilized Fn-R is detected with labeled anti-FnR antibodies in the presence of various concentrations of peptide analogue.
Microtiter plates were coated with 110 μl of human fibronectin (at 2 μg/ml) in TBS. The plates were washed three times with TBS that contained 0.05% Tween 20. If necessary, peptides were added after this washing in 10 microliter aliquots. The fibronectin receptor was then added in 2-fold serial dilutions with TBS containing 20 mM octyl glucoside and 2 mM MnCl2. The plates were incubated for three hours at room temperature, washed with 200 μl of the above TBS-Tween buffer. 100 μl of affinity-purified rabbit anti-human fibronectin receptor antibody was added to the wells and the plates were incubated for an additional two hours, washed twice with TBS-Tween and then distilled water. Affinity-purified goat anti-rabbit IgG conjugated to horseradish peroxidase (100 μl) was then added to each well. Bonding reactions were incubated for 16 hours at room temperature. The following day, the plates were washed twice with TBS-Tween and then distilled water. […]

[4] = biological target: T2, vitronectin receptor (Vn-R) (Homo sapiens, UniProt P05106+P06756); assay: Liposome attachment assay for vitronectin receptor; details: purified receptor from human placenta, read-out: VnR Binding (IC50)
T2 construct: from tissue; host or cells: human placenta
T2 sequence (P06756 31-889 limits assumed): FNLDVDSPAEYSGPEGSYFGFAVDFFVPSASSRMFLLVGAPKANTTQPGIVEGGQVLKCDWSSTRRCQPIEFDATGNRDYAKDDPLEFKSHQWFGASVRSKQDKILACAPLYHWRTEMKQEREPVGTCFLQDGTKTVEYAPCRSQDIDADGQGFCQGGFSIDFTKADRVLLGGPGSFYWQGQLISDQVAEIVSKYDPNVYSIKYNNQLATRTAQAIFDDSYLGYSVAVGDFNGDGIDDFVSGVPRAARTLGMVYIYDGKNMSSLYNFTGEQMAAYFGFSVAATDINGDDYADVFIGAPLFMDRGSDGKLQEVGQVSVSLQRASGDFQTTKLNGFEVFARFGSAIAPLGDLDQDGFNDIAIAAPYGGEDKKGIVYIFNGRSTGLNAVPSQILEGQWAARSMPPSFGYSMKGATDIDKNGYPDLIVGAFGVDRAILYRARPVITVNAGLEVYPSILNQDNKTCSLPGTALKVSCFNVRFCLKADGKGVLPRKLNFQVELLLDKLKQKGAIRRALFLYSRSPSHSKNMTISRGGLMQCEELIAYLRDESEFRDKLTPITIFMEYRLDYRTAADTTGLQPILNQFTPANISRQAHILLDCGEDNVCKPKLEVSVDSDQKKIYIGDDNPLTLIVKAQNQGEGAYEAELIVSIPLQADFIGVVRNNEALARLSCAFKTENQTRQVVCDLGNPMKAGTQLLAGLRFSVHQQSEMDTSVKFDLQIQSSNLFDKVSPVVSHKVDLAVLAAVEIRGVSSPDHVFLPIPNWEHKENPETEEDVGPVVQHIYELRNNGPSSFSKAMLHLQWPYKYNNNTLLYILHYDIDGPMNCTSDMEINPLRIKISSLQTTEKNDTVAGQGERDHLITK
T2 sequence (P06756 891-1048 partner limits assumed): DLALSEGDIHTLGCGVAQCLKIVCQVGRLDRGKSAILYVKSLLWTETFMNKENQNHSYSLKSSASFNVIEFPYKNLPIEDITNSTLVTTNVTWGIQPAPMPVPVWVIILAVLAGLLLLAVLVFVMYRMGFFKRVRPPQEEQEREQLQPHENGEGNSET
T2 sequence (P05106 27-788): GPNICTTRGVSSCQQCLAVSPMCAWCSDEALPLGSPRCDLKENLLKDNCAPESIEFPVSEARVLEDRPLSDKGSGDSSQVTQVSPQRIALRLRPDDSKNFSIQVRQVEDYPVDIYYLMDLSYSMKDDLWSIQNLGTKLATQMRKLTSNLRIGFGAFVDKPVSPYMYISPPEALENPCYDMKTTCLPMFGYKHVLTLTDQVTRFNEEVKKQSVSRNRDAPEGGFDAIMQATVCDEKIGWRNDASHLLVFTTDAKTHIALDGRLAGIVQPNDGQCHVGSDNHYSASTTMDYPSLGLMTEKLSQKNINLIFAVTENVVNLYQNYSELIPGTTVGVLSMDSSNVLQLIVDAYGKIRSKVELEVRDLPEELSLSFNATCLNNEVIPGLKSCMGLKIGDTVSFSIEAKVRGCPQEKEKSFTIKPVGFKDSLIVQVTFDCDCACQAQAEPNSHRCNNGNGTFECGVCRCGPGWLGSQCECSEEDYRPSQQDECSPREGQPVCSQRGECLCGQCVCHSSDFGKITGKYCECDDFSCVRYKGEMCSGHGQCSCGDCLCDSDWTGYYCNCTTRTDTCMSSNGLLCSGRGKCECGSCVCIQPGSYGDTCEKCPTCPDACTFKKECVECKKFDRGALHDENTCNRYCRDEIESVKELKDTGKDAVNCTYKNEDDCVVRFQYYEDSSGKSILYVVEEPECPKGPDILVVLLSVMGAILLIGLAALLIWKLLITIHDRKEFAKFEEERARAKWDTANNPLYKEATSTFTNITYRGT
Description: Receptors were purified according to the procedures of Pytela et al. (Methods Enzymol. 144:475 (1987)), incorporated herein by reference. […] After extraction, the suspension was filtered over a Sepharose 6B column and then applied to a GRGDSPK column. Except where stated, all procedures were carried out at 4° C. The peptide column was washed with three volumes of Tris-buffered saline (TBS) containing 1 mM Ca^2+ and 25 mM OG and then with TBS containing 1 mM Ca^2+ and 25 mM octyl thioglucoside (OTG) at room temperature. […] Finally, Ca^2+ and Mg^+2 were added to eluted fractions to achieve final concentrations of 1 mM for both ions.
This assay was performed with minor modifications, according to the method of Pytela et al., Methods Enzymol. 144:475 (1987), incorporated herein by reference. […] An aliquot of the dialyzed sample was counted to assess radioactive content; the receptor-liposome mixture was then diluted to obtain a set radioactivity per unit volume. […]
(§1) In parallel studies with the platelet aggregation experiments (described in Example V), the apparent affinities of peptides for GP IIb/IIIa, fibronectin and vitronectin receptors were determined. […]
(§2) IC50 s for FnR were determined by ELISA (Example III). Those for VnR and GP IIb/IIIa were determined by liposome attachment assay (Example IV). […]

GP IIb/IIIa = GP IIb/IIIa (Homo sapiens, UniProt P05106+P08514); assay: Liposome attachment assay for GP IIb/IIIa; details: read-out: IIb/IIIa Binding (IC50)
Sequence of GP IIb/IIIa (P08514 32-887 limits assumed): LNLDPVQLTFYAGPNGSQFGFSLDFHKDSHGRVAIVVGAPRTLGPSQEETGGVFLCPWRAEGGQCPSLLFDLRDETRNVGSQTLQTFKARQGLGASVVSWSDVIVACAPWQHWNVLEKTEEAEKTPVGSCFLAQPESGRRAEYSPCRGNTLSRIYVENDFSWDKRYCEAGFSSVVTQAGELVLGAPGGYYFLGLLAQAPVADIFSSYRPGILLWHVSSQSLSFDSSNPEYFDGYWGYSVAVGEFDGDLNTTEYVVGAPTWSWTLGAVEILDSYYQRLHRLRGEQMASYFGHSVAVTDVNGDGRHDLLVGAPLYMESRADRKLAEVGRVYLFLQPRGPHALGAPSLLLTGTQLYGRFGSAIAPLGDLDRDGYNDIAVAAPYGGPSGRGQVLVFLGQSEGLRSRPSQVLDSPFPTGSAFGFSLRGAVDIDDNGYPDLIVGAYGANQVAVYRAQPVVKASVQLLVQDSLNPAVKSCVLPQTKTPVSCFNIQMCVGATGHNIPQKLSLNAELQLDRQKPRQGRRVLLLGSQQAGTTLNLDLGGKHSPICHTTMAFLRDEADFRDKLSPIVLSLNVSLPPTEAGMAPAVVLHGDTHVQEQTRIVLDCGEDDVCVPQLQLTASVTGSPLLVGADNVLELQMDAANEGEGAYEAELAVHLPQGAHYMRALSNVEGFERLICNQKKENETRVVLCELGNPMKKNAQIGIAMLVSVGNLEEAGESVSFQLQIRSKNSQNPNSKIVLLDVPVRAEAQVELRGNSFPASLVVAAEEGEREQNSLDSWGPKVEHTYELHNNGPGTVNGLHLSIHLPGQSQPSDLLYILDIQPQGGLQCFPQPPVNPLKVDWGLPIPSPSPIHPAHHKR
Sequence of GP IIb/IIIa (P08514 891-1039 partner limits assumed): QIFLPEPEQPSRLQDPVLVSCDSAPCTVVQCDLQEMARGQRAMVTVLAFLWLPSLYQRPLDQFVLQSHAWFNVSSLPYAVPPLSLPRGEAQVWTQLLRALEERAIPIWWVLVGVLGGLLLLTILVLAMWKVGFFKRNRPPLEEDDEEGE
Sequence of GP IIb/IIIa (P05106 27-788): as the sequence (P05106 27-788) above
Description: This assay was performed with minor modifications, according to the method of Pytela et al., Methods Enzymol. 144:475 (1987), incorporated herein by reference. Briefly, 1:4 mixture of labelled and unlabelled phosphatidylcholine (PC) liposomes was dissolved under nitrogen and diluted with an equal volume of purified receptor (purified as described in Example II) to achieve a fixed predetermined receptor-liposome concentration ratio. This mixture was then dialyzed overnight at 4° C. in phosphate buffered saline (PBS) containing 1 mM Ca^2+. An aliquot of the dialyzed sample was counted to assess radioactive content; the receptor-liposome mixture was then diluted to obtain a set radioactivity per unit volume.
Microtiter plates were coated with 10 μg of vitronectin. Non-specific sites were blocked for 2 hours at 37° C. in PBS containing 5 mg/ml BSA and 1 mM each of CaCl2 and MgCl2. The plates were then rinsed twice with PBS containing 1 mM Ca^+2 and Mg^+2, and 100 μl of the liposome-receptor mixture was added to each well. […]
as §1, §2

[5] = system: platelets stimulated with ADP; assay: ADP-stimulated platelet aggregation (aggregometer, platelet-rich plasma); details: read-out: ADP-Stimulated Aggregation (IC50), ADP 10 μm, 37° C.
Description: Briefly, the change in light transmission was measured through a stirred suspension of platelets in an aggregometer (Model 400 VS, Chrono-Log, Havertown, Pa., USA). […] In studies using thrombin, the PRP was gel-filtered on Sepharose 2B in divalent ion-free Tyrode's solution containing 2% BSA. For all studies, the reference standard was platelet-poor plasma, which was obtained by centrifuging PRP at 1000×g for 5 min.
All aggregation studies were performed at 37° C. with a constantly stirred suspension of 3×10^8 platelets/ml. (Platelet count was determined with the aid of a hemacytometer.) Peptides and stimulants were added to these suspensions in 1% dilutions. The PRP and gel-filtered platelets were used within three hours from the time of blood collection.
Peptide anti-aggregation potencies were determined from dose-responsive curves for the inhibition of the maximum aggregation responses stimulated by physiologic doses of ADP (10 μm) and thrombin (2 U/ml).

[6] = 10 mg/kg bolus + 10 mg/kg/hr, intra-atrial
[7] = 10 mg/kg, all three time points

Substance: RPenGRGDWPCR
- reduction of ex vivo aggregation relative to control levels (platelets [1]; one hour): 20-58%
- reduction of ex vivo aggregation relative to control levels (platelets [1]; three and five hours, listed as 4R): 75-100% and 72-100%
- ex vivo platelet responsiveness to all modes of stimulation (platelets [1]; 10 mg/kg, all time points): unresponsive
- time to full occlusion (coronary thrombosis) (coronary thrombosis; 3 mg/kg): ineffective
- time to full occlusion (coronary thrombosis) (coronary thrombosis; [6]): prevented occlusion

Substance: GPenGHRGDLRCA
- inhibition of ADP-stimulated ex vivo aggregation (platelets [1]; 10 mg/kg, 1, 3 and 5 h): substantially inhibited
- inhibition of AA-stimulated ex vivo aggregation relative to control levels (platelets [1]; [7]): 43-70%
- inhibition of collagen-stimulated ex vivo aggregation relative to control levels (platelets [1]; [7]): 12-50%
- time to full occlusion (coronary thrombosis) (coronary thrombosis; [6]): did not significantly influence
- ex vivo platelet responsiveness to ADP (platelets [2]): completely unresponsive

Substance: GRGDSPDG
- IC50 [3]: 0.005 µM

Substance: GHRGDLRDASG
- IC50 [4]: 36.8 µM

Substance: GPGRGDSPCA
- IC50 (GP IIb/IIIa): 20 µM

Substance: (t-but-am-Pam-Pmp)GHRGDLRPenA
- IC50 [5]: 89 µM

Substance: FRGDSPDG
- IC50 [3]: 0.12 µM

Substance: RPenGHRGDWRCR
- blockade of all ex vivo aggregation responses (platelets [1]; 5 mg/kg): completely or near-maximally blocked
- inhibition of ex vivo platelet activation by collagen (platelets [1]; 5 mg/kg): near-maximal inhibition
- platelet responsiveness ex vivo to ADP and AA (platelets [1]; 5 mg/kg, all three time points): completely unresponsive
- thrombus formation in animals whose circulating platelet levels were one-third of normal (coronary thrombosis; 5 mg/kg): able to prevent thrombus formation
- time to full occlusion (coronary thrombosis) (coronary thrombosis; 5 mg/kg bolus + 5 mg/kg/hr, intra-atrial): significantly prolonged
- time to full occlusion (coronary thrombosis) (coronary thrombosis; [6]): completely prevented occlusion
